Results on 19 molecules are retold here after US8895035B2, “Alkoxyimino derivative and pest control agent” (Kumiai Chemical Industry Co., Ltd, priority 2010, dated 2014).

Common to all, as to type: in vivo
The subject of test [1] is Aphis gossipii Glover (cotton aphid, melon aphid). The test is described as follows: Insecticidal action test for Aphis gossipii Glover (seedling immersion). Particulars: 72 h, 500 ppm active ingredient, cucumber seedlings with hatchlings immersed, 25° C., after 3 days, read-out: insect mortality. Here is the method:
A wettable powder prepared based on Formulation Example 2 was diluted with water so that the concentration of active ingredient became 500 ppm. In the resulting liquid were immersed cucumber seedlings on which the hatchlings of Aphis gossipii Glover were parasitic, after which the cucumber seedlings were dried in the air. The resulting cucumber seedlings were placed in a thermostat of 25° C. After 3 days, the number of living insects was calculated and the mortality of insect was calculated using the calculation formula of the following Mathematical Expression 1. Insect mortality (%)=[1−(number of living insects)/(number of tested insects)]×100 [Mathematical Expression 1]

Test [2] has the same test system. Briefly: Insecticidal action test for Aphis gossipii Glover (drench). Particulars: soil, 72 h, 500 ppm active ingredient, 5 ml drenched to foot of cucumber seedlings with hatchlings, 25° C., after 3 days, read-out: insect mortality. As to the method: A wettable powder prepared based on Formulation Example 2 was diluted with water so that the concentration of active ingredient became 500 ppm. 5 ml of the resulting diluted formulation was drenched to the […] foot of cucumber seedlings on which the hatchlings of Aphis gossipii Glover were parasitic. The resulting cucumber seedlings were placed in a thermostat of 25° C. After 3 days, the number of living insects was calculated and the mortality of insect was calculated using the calculation formula of Mathematical Expression 1.

In test [3] the test system is Nilaparvata lugens Stál (brown rice planthopper). Briefly: Insecticidal action test for Nilaparvata lugens Stál (immersed sprouting rice). Particulars: 144 h, 500 ppm active ingredient, sprouting unhulled rice immersed, 3-age larvae, 25° C., after 6 days, read-out: insect mortality. Here is the method:
A wettable powder prepared based on Formulation Example 2 was diluted with water so that the concentration of active ingredient became 500 ppm. In the diluted formulation were immersed sprouting unhulled rice. The immersed rice was placed in a plastic cup of 60 ml. Into the plastic cup were released 10 3-age larvae of Nilaparvata lugens Stál (brown rice planthopper). The cup was covered with a cap and placed in a thermostat of 25° C. After 6 days, the number of living insects was counted and the mortality of insect was calculated using the calculation formula of Mathematical Expression 1.

Test [4] relates to Brown planthopper (Nilaparvata lugens). Briefly: Trial of systematic insecticidal activity against brown planthopper. Particulars: 144 h, 1,800 ppm active ingredient, 250 μl poured to rice-plant foot of rice seedlings, 3-age larvae, 25° C., after 6 days, read-out: insect mortality. As to the method:
A wettable powder prepared based on Formulation Example 2 was diluted with water so that the concentration of active ingredient became 1,800 ppm. 250 μl of the diluted formulation was poured to the rice-plant foot of 2.5-leaf age rice seedlings planted in a paper pot of 1.5 cm (length)×1.5 cm (width)×3 cm (height). Then, the paper pot was placed in a plastic cup of 700 ml. Into the plastic cup were released 5 3-age larvae of Nilaparvata lugens Stál (brown rice planthopper). The cup was covered with a cap and placed in a thermostat of 25° C. After 6 days, the number of living insects was counted and the mortality of insect was calculated using the calculation formula of Mathematical Expression 1.

The mortality is the percentage killed. As for `CC(C)ON=C(Cl)C(=NOC(C)C)n1cncn1` [I-4, 1-(2-chloro-1,2-diisopropoxyiminoethyl)-1H-1,2,4-triazole], the mortality at 500 ppm in test [1], in test [2] and in test [3] was no less than 90% throughout. Besides, the mortality at 1800 ppm in test [4] is no less than 90%.

`CC(C)ON=C(C#N)C(=NOC(C)C)n1cncn1` [I-50, 1-(2-cyano-1,2-diisopropoxyiminoethyl)-1H-1,2,4-triazole]: the mortality at 500 ppm in test [1] and in test [3] was no less than 90% throughout. Also, the mortality at 1800 ppm in test [4] is no less than 90%.

Turning to `CC(C)ON=C(C(N)=O)C(=NOC(C)C)n1cncn1` [I-73, 1-(2-carbamoyl-1,2-diisopropoxyiminoethyl)-1H-1,2,4-triazole], in test [3], the mortality at 500 ppm was no less than 90%.

As for `CC(C)CON=C(N)C(=NOC(C)C)n1cncn1` [I-121, 1-(2-amino-2-isobutoxyimino-1-isopropoxyiminoethyl)-1H-1,2,4-triazole], the mortality at 500 ppm in test [1] and in test [3] was no less than 90% each time.

For `CC(C)ON=C(Br)C(=NOC(C)C)n1cncn1` [I-142, 1-(2-bromo-1,2-diisopropoxyiminoethyl)-1H-1,2,4-triazole], the mortality at 500 ppm in test [1] and in test [3] was no less than 90% in each case. Further, the mortality at 1800 ppm in test [4] is no less than 90%.

Consider `COC(=NOC(C)C)C(=NOC(C)C)n1cncn1` [I-165, 1-(1,2-diisopropoxyimino-2-methoxyethyl)-1H-1,2,4-triazole], for which the mortality at 500 ppm in test [1] and in test [3] was no less than 90% in each case. Also, in test [4], the mortality at 1800 ppm was no less than 90%.

`CC(C)ON=C(C(=NOC(C)C)n1cncn1)n1cncn1` [I-212, 1,2-diisopropoxyimino-1,2-bis(1H-1,2,4-triazol-1-yl)ethane]: the mortality at 500 ppm in test [1] and in test [3] was no less than 90% each time.

With `CC(C)ON=C(C(=NOC(C)C)n1cncn1)c1nnn[nH]1` [I-213, 1-[1,2-diisopropoxyimino-2-(1H-tetrazol-5-yl)ethyl]-1H-1,2,4-triazole], in test [3], the mortality at 500 ppm was no less than 90%.

As for `CSC(=NOC(C)C)C(=NOC(C)C)n1cncn1` [I-228, 1-(2-methylthio-1,2-diisopropoxyiminoethyl)-1H-1,2,4-triazole], the mortality at 500 ppm in test [1] and in test [3] was no less than 90% in each case. The mortality at 1800 ppm in test [4] is no less than 90%.

With `CC(=NOC(C)C)C(=NOC(C)C)n1ccnc1` [I-273, 1-(1,2-diisopropoxyiminopropyl)imidazole], the mortality at 500 ppm in test [1] and in test [3] was no less than 90% in each case. Further, in test [4], the mortality at 1800 ppm was no less than 90%.

Turning to `CON=C(C(=NOC(C)C)C(=O)OC)n1cncn1` [II-221, 1-(2-isopropoxyimino-2-methoxycarbonyl-1-methoxyiminoethyl)-1H-1,2,4-triazole], the mortality at 500 ppm in test [1] and in test [3] was no less than 90% throughout.

Turning to `CCSC(=O)C(=NOC(C)C)C(=NOC)n1cncn1` [II-222, S-ethyl 2-isopropoxyimino-3-methoxyimino-3-(1H-1,2,4-triazol-1-yl)propanethioate], the mortality at 500 ppm in test [1] and in test [3] was no less than 90% each time.

Consider `CON=C(C(=NOC(C)C)C(N)=S)n1cncn1` [II-224, 1-(2-isopropoxyimino-2-thiocarbamoyl-1-methoxyiminoethyl)-1H-1,2,4-triazole], for which the mortality at 500 ppm in test [1] and in test [3] was no less than 90% in each case. Further, the mortality at 1800 ppm in test [4] was no less than 90%.

Turning to `CCCCON=C(C#N)C(=NOCC)n1cncn1` [III-51, 1-(2-n-butoxyimino-2-cyano-1-ethoxyiminoethyl)-1H-1,2,4-triazole], the mortality at 500 ppm in test [1] and in test [3] was no less than 90% in each case.

For the molecule `CCCCON=C(C(N)=O)C(=NOCC)n1cncn1` [III-74, 1-(2-n-butoxyimino-2-carbamoyl-1-ethoxyiminoethyl)-1H-1,2,4-triazole], in test [3], the mortality at 500 ppm is no less than 90%.

`CCCON=C(C#N)C(=NOCCC)n1cncn1` [IV-90, 1-[2-cyano-1,2-bis(n-propoxyimino)ethyl]-1H-1,2,4-triazole]: the mortality at 500 ppm in test [1] and in test [3] was no less than 90% each time.

For the molecule `CCCON=C(C(N)=O)C(=NOCCC)n1cncn1` [IV-101, 1-[2-carbamoyl-1,2-bis(n-propoxyimino)ethyl]-1H-1,2,4-triazole], the mortality at 500 ppm in test [3] is no less than 90%. Also, the mortality at 1800 ppm in test [4] was no less than 90%.

On to `N#CC(=NOCC(F)(F)C(F)(F)F)C(=NOCC(F)(F)F)n1cncn1` [IV-185, 1-[2-cyano-2-(2,2,3,3,3-pentafluoro-n-propoxyimino)-1-(2,2,2-trifluoroethoxyimino)ethyl]-1H-1,2,4-triazole], for which the mortality at 500 ppm in test [3] was no less than 90%.

`CC(=NOC(C)C)C(=NOC(C)C)n1ccnc1S` [V-10, 1-(1,2-diisopropoxyiminopropyl)-2-mercaptoimidazole]: the mortality at 500 ppm in test [1] and in test [3] was no less than 90% throughout.
